The numbers were not newly measured in patent US20100260718A1, “IRF-4 AS A TUMOR SUPPRESSOR AND USES THEREOF” (Brandels University, priority 2007, published 2010), which cites them from elsewhere.

Data set [1] deals with primitive CML progenitors.
The subject of the next data set is IRF-4. The conditions noted are these: patients with CML, downregulated before treatment.

IFN-α: the “toxicity to the more primitive CML progenitors, relative to imatinib” value in data set [1] is given as “higher toxicity”. For the same substance, the IRF-4 expression result with IRF-4 is “restored”.
